In PMC2362091, “Expression of V1A and GRP receptors leads to cellular transformation and increased sensitivity to substance-P analogue-induced growth inhibition” (British Journal of Cancer, 2005):
Converted amounts (≈) assume the structure as drawn. Like-named read-outs stand apart in the source and are kept apart here. Square brackets hold non-standard residues; d marks the D form. Peptide text beside a SMILES is read from it. NMeF = CN[C@@H](Cc1ccccc1)C(=O)O

Tests used:
[1] = system: GRP receptor expressing CHO-K1 cells; experiment: Clonogenic assay in semisolid media, GRP receptor expressing cells; type: cell-based; details: 30 μM, 0.3% agar, 1% FCS, 8 days
Experimental: (§1) CHO-K1 (2x10^4) viable cells were mixed with DMEM containing 0.3% agarose in the presence or absence of mediators and layered over a solid base of 0.5% agarose in DMEM in 35 mm plastic dishes. The cultures were incubated at 37°C for 1–10 days, and then stained with 1 mg ml^−1 nitro-blue tetrazolium (NBT, Sigma) overnight at 37°C. Colonies from 10 separate fields were counted using a microscope with a × 4 objective. Cloning efficiency is calculated as the percentage of original number of seeded cells forming colonies of >6 cells.
(§2) Figure 3 Effect of SP-D and SP-G on clonal growth. (A) Cells were grown in 0.3% agar with 1% FCS for 8 days in the presence or absence (open bar) of 30 μM SP-D (black bar) or SP-G (grey bar). […] Aggregation assay. (B) Wild-type, GRPR-transfected and V1AR-transfected CHO-K1 cells were plated into low adhesion tissue culture plates on top of a layer of 0.5% agar in DMEM containing 5% FCS at a density of 5 × 10^4 ml^−1 in the presence of varying concentrations of SP-G. Cells were maintained in culture for 7 days, briefly trypsinised to dissagregate clusters and viable cells counted by propidium iodide exclusion.

[2] = system: V1AR-transfected CHO-K1 cells; experiment: Aggregation assay (anchorage-independent growth), V1AR-transfected cells; type: cell-based; details: low adhesion plates, 5% FCS, 7 days, viable cells counted
Experimental: (§3) CHO-K1 cells were suspended in DMEM in the presence of 5% FCS and seeded into low adhesion tissue culture plates on top of a layer (1 ml) of 0.5% agar. […] Cells were maintained in culture for 7 days briefly trypsinised to disaggregate clusters and viable cells counted.
as §2

[3] = target: T1, human GRP receptor (Homo sapiens, UniProt P30550); experiment: Intracellular Ca2+ (FURA-2), CHO-GRP cells; type: cell-based; details: in absence of GRP
T1 construct: CHO-K1 cells were transfected with full-length human GRP receptor or human V1A receptor; expressed in transfected cells
Experimental: (§8) Cells were trypsinised and loaded with fura-2-tetraacetoxymethylester AME (FURA-2-AM, 1 μM) in calcium-free Hank's balanced salt solution for 10 min at 37°C. The cells were pelleted and resuspended in 2 ml of Hank's balanced salt solution containing 1.8 mM CaCl2. Fluorescence was recorded in a fluorescence spectrophotometer (Perkin Elmer). Alternate dual wavelength excitation at 380 and 410 nm allowed ratiometric analysis of bound and unbound FURA-2AM when measured at 505 nm. [Ca^2+] was calculated according to the equation [Ca^2+]=K(F−Fmin)/(Fmax−F), where F is the ratio of the unknown sample, Fmax is the ratio after the addition of 0.1% Triton X-100 and Fmin is the ratio after Ca^2+ chelation with 10 mM EGTA. K is the dissociation constant for Fura-2, which is 224 nM.
(§9) Quiescent GRP (A, B) or V1A (C, D) receptor expressing CHO cells were incubated with FURA-2AM for 15 min at 37°C and ratiometric fluorescence monitored at 37°C. […] Concentration–response curves to vasopressin were carried out in control cells and in cells treated with 1 or 10 μM SP-D (C) or SP-G (D). Results are expressed as % maximum control response to neuropeptide and represent the mean±s.e.m. of four experiments.

[4] = target: T2, human V1A receptor (Homo sapiens, UniProt P37288); experiment: Intracellular Ca2+ (FURA-2), V1A-expressing CHO cells; type: cell-based; details: in absence of AVP
T2 construct: CHO-K1 cells were transfected with full-length human GRP receptor or human V1A receptor; expressed in transfected cells
Experimental: as §8, §9

[5] = system: ERK phosphorylation in V1A receptor expressing CHO cells; experiment: ERK phosphorylation (Western blot), V1A receptor expressing CHO cells; type: cell-based; details: for stimulation of ERK: at 50 μM
Experimental: (§4) Quiescent cell cultures in six-well plates were treated as described in figure legends and lysed at 4°C in 0.25 ml lysis buffer containing; 25 mM HEPES pH 7.4, 0.3 M NaCl, 1.5 mM MgCl2, 0.2 mM EDTA, 0.5% Triton X-100, 20 mM β-glycerphosphate, 0.5 mM dithiothreitol, 1 mM sodium orthovanadate and protease inhibitors (Boehringer Mannheim, Sussex, UK; prepared as per the manufacturer's instructions). Lysates were clarified by centrifugation, equilibrated for protein using BCA protein assay reagent (Perbio Science, Cheshire, UK) and denatured by boiling (5 min) in SDS–PAGE loading buffer. In all, 20 μl lysate/lane was resolved on 12% SDS–PAGE gels and electroblotted onto nitrocellulose membranes. Membranes were blocked in 3% bovine serum albumin in PBS containing 0.05% Tween-20. ERK1/2 phosphorylation was determined using 1 : 1000 dilution of the primary antibody followed by the appropriate HRP-labelled goat IgG (DAKO, UK) diluted 1 : 5000. Bands were visualized using enhanced chemiluminescence (ECL plus, Amersham) and quantified using a phosphor imager (Storm).
(§5) In this study, ERK activation was measured in CHO cells expressing GRP or V1A receptors in response to the appropriate neuropeptide or substance-P analogue. Activation was estimated in immunoblots from stimulated lysates using a phosphorylation state-specific antibody. Lysates from quiesced cells stimulated for […] with either neuropeptide or SP-D or SP-G were separated on 12% gels and blotted for pERK2 or total ERK1/2.
Figure 6 (A) ERK phosphorylation by neuropeptides. Quiescent GRP (left) or V1A (right) receptor expressing CHO cells were stimulated for 5 min with neuropeptide at the indicated concentrations. […] Representative Western blots are shown. Bar graphs represent the mean optical density (mean±s.e.m.) of four separate experiments. (B) ERK phosphorylation by substance-P analogues. Quiescent GRP (left) or V1A (right) receptor expressing CHO cells were stimulated for 5 min with SP-D (filled bars) or SP-G (open bars) at the indicated concentrations. […] Representative Western blots are shown. […]

[6] = system: V1A receptor expressing CHO-K1 cells; experiment: Clonogenic assay in semisolid media, V1A receptor expressing cells; type: cell-based; details: 30 μM, 0.3% agar, 1% FCS, 8 days
Experimental: as §1, §2

[7] = system: GRPR-transfected CHO-K1 cells; experiment: Aggregation assay (anchorage-independent growth), GRPR-transfected cells; type: cell-based; details: low adhesion plates, 5% FCS, 7 days, viable cells counted
Experimental: as §3, §2

[8] = target: T2, human V1A receptor; experiment: Receptor binding, [125I]-AVP, CHO-K1-V1Ar cells; details: V1A over GRP receptor, from Ki
Experimental: CHO-K1 cells were maintained in DMEM supplemented with 10% (v v^−1) foetal bovine serum (heat-inactivated at 57°C for 1 h) 50 U ml^−1 penicillin, 50 μg ml^−1 streptomycin and 5 μg ml^−1 L-glutamine in a humidified atmosphere of 5% CO2:95% air at 37°C. CHO-K1 cells were transfected with full-length human GRP receptor or human V1A receptor using lipofectamine plus (Invitrogen) as per the manufacturer's instructions. Stable cell cultures were maintained in the presence of 400 μg ml^−1 G418-sulphate.
The binding parameters Kd and Bmax were calculated from competition binding isotherms with unlabelled ligand ([DeBlasi et al, 1989]).

[9] = design: method as in Clive et al, 2001; details: at therapeutic plasma concentrations; ref Clive et al, 2001; cited from earlier work
[10] = system: vector control CHO-K1 cells; experiment: Clonogenic assay in semisolid media, vector control cells; type: cell-based; details: 30 μM, 0.3% agar, 1% FCS, 8 days
Experimental: as §1, §2

[11] = system: ERK phosphorylation in GRP receptor expressing CHO cells; experiment: ERK phosphorylation (Western blot), GRP receptor expressing CHO cells; type: cell-based; details: for maximal stimulation of ERK: at 50 μM
Experimental: as §4, §5
Figure 6 (A) ERK phosphorylation by neuropeptides. Quiescent GRP (left) or V1A (right) receptor expressing CHO cells were stimulated for 5 min with neuropeptide at the indicated concentrations. […] Representative Western blots are shown. Bar graphs represent the mean optical density (mean±s.e.m.) of four separate experiments. (B) ERK phosphorylation by substance-P analogues. Quiescent GRP (left) or V1A (right) receptor expressing CHO cells were stimulated for 5 min with SP-D (filled bars) or SP-G (open bars) at the indicated concentrations. […] Representative Western blots are shown. Bar graphs represent the mean optical density (mean±s.e.m.) of four separate experiments.
Figure 7 Effect of pertussis toxin (PTX) on ERK phosphorylation. Confluent cultures of GRP (left) or V1A (right) receptor expressing CHO cells were quiesced overnight in the presence or absence of 100 ng ml^−1 pertussis toxin. Cells were stimulated for 5 min with 30 μM SP-D or SP-G or 1 nM neuropeptide as indicated. […] Representative Western blots are shown.

[12] = system: ERK phosphorylation in untransfected CHO cells; experiment: ERK phosphorylation (Western blot), untransfected CHO cells; type: cell-based; details: data not shown
Experimental: as §4
In this study, ERK activation was measured in CHO cells expressing GRP or V1A receptors in response to the appropriate neuropeptide or substance-P analogue. Activation was estimated in immunoblots from stimulated lysates using a phosphorylation state-specific antibody. […]

[13] = system: untransfected CHO-K1 cells; experiment: Intracellular Ca2+ (FURA-2), untransfected cells; type: cell-based; details: data not shown
[14] = system: CHO-V1Ar cells; experiment: cells; type: cell-based
Experimental: (§6) In some assays, MTT (3-[4,5-dimethylthiazol-2yl]-2,5-diphenyl tetrazolium bromide) formazan production (Sigma) was used to measure proliferation as per the manufacturer's instructions.
(§7) Figure 4 Effect of neuropeptide on chemosensitivity. Wild-type CHO-K1 cells (left) and cells expressing the V1A (middle) or GRP (right) receptor were plated at a density of 1e^4 cells per well of a 96-well tissue culture plate in DMEM with 10% FCS and incubated overnight 37°C. […] Cell viability was assessed by MTT staining.

[15] = system: CHO-WT cells; experiment: Chemosensitivity, MTT assay, wild-type cells; type: cell-based; details: 48 h, absence of serum; read-out: IC50, inhibition of proliferation (MTT)
Experimental: as §6, §7

[16] = system: CHO-GRPr cells; experiment: Chemosensitivity, MTT assay, GRPr cells; type: cell-based
Experimental: as §6, §7

[17] = 48 h, absence of serum, read-out: IC50, inhibition of proliferation (MTT)
[18] = 48 h serum-free, no neuropeptide, read-out: IC50 (MTT), control cells of neuropeptide protection experiment

T2 sequence (P37288 whole entry): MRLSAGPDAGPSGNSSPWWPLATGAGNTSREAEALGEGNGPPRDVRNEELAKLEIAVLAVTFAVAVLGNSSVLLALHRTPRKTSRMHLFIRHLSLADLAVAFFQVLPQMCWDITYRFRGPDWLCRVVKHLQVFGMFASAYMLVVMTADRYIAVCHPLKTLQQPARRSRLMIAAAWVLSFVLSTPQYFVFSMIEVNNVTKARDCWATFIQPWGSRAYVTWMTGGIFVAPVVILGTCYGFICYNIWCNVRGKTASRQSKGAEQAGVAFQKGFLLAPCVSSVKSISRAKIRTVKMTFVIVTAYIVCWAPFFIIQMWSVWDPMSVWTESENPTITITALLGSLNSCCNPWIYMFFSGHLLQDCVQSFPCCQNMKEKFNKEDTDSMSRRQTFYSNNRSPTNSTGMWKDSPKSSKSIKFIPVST
T1 sequence (P30550 whole entry): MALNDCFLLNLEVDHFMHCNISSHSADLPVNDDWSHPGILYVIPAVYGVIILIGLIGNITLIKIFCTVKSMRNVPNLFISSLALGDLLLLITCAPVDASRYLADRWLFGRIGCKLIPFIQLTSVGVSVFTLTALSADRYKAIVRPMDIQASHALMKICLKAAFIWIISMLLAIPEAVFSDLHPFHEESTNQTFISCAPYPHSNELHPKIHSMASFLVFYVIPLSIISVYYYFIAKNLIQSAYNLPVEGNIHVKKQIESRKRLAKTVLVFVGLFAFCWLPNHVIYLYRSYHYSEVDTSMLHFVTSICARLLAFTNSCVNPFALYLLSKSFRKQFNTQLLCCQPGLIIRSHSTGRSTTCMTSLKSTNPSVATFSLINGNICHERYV

Structure (SMILES) | colony formation [1] | cell growth in aggregation assay [2] | change in [Ca2+]i on their own [3] | direct mobilisation of intracellular calcium [4] | stimulation of ERK [5] [fold] | colony formation [6] | cell growth in aggregation assay [7] | cloning efficiency [10] | maximal stimulation of ERK [11] [fold] | further results
CSCC[C@H](NC(=O)[C@H](CC(C)C)NC(=O)[C@@H](Cc1c[nH]c2ccccc12)NC(=O)[C@H](Cc1ccccc1)N(C)C(=O)[C@@H](Cc1c[nH]c2ccccc12)NC(=O)[C@@H](N)CCCNC(=N)N)C(N)=O [SP-G, [Arg^6,D-Trp^7,9,N^mePhe^8]-substance-P (6–11)] (H-R[dW][NMeF][dW]LM-NH2; N-terminus and C-terminus assumed) | significantly reduced colony formation | able to inhibit cell growth | no change | did not mobilise intracellular calcium directly | 4.3 | significantly reduced colony formation | able to inhibit cell growth | no effect | 2.1 | effect of pertussis toxin pretreatment on ERK activation by the substance ([5]; 100 ng ml^−1 PTX overnight, AVP, 20 μM SP-G, 1 μM LPA): completely inhibited; selectivity for the V1A receptor [8]: six; toxicity in phase I clinical trial [9]: minimal toxicity
CSCC[C@H](NC(=O)[C@H](CC(C)C)NC(=O)[C@H](Cc1c[nH]cn1)NC(=O)CNC(=O)[C@@H](NC(=O)[C@H](C)NC(=O)[C@H](Cc1c[nH]c2ccccc12)NC(=O)[C@H](Cc1c[nH]cn1)NC(=O)[C@H](CC(N)=O)NC(=O)CNC(=O)[C@H](CCCNC(=N)N)NC(=O)[C@@H]1CCCN1C(=O)[C@H](Cc1ccc(O)cc1)NC(=O)[C@H](CCSC)NC(=O)[C@H](CCCCN)NC(=O)[C@@H](NC(=O)[C@H](CC(C)C)NC(=O)[C@@H](NC(=O)[C@@H](NC(=O)CNC(=O)CNC(=O)CNC(=O)[C@H](C)NC(=O)[C@@H]1CCCN1C(=O)[C@H](CC(C)C)NC(=O)[C@@H]1CCCN1C(=O)[C@@H](N)C(C)C)[C@@H](C)O)C(C)C)[C@@H](C)O)C(C)C)C(N)=O [GRP, gastrin-releasing peptide] |  |  |  |  |  |  |  |  |  | stimulation of ERK phosphorylation [12]: Neither AVP nor GRP produced any stimulation; change in [Ca2+]i [13]: neither GRP nor AVP produced a significant change
CC(C)C[C@H](NC(=O)[C@H](CC(C)C)NC(=O)[C@@H](Cc1c[nH]c2ccccc12)NC(=O)[C@H](Cc1ccccc1)NC(=O)[C@@H](Cc1c[nH]c2ccccc12)NC(=O)[C@H](CCC(N)=O)NC(=O)[C@@H](Cc1ccccc1)NC(=O)[C@@H]1CCCN1C(=O)[C@H](CCCCN)NC(=O)[C@@H]1CCCN1C(=O)[C@H](N)CCCNC(=N)N)C(N)=O [SP-D, [D-Arg^1,D-Phe^5,D-Trp^7,9,Leu^11]-substance-P] (H-[dR]PKP[dF]Q[dW]F[dW]LL-NH2; N-terminus and C-terminus assumed) | significantly reduced colony formation | able to inhibit cell growth | no change | did not mobilise intracellular calcium directly | 2 | significantly reduced colony formation | able to inhibit cell growth | no effect | 2.8 | concentration at which activation of ERK was evident [11]: 3 µM; effect of pertussis toxin pretreatment on ERK activation by the substance ([11]; 100 ng ml^−1 PTX overnight, bombesin, 10 μM SP-D, 1 μM LPA): completely abolished
COc1cc([C@@H]2c3cc4c(cc3[C@@H](O[C@@H]3O[C@@H]5CO[C@@H](C)O[C@H]5[C@H](O)[C@H]3O)[C@H]3COC(=O)[C@H]23)OCO4)cc(OC)c1O [etoposide] |  |  |  |  |  |  |  |  |  | IC50 [14, 17]: 14.2 ± 4 mg/L (≈ 24.1 µM); IC50 [14, 18]: 13 mg/L (≈ 22.1 µM); IC50 [15]: 12.4 ± 3.1 mg/L (≈ 21.1 µM); IC50 [16, 17]: 8.1 ± 2.3 mg/L (≈ 13.8 µM); IC50 [16, 18]: 6.3 mg/L (≈ 10.7 µM)
NC(=O)CC[C@@H]1NC(=O)[C@H](Cc2ccccc2)NC(=O)[C@H](Cc2ccc(O)cc2)NC(=O)[C@@H](N)CSSC[C@@H](C(=O)N2CCC[C@H]2C(=O)N[C@@H](CCCN=C(N)N)C(=O)NCC(N)=O)NC(=O)[C@H](CC(N)=O)NC1=O [AVP, arginine vasopressin] |  |  |  |  |  |  |  |  |  | increase in MTT accumulation compared to control cells ([14]; 50 nM neuropeptide, at 40 μg ml^−1 etoposide, 48 h): 92%
